{"source": "patent US20190256929A1", "about": "“PHARMACODYNAMIC BIOMARKERS FOR PERSONALIZED CANCER CARE USING EPIGENETIC MODIFYING AGENTS” (ORYZON GENOMICS, S.A., priority 2016, published 2019)", "test_system": "PDX model FHSC04", "test": "RNA-seq PD gene change in SCLC PDX model FHSC04 treated in vivo", "design": "species or system mice", "details": "400 μg/kg oral gavage", "protocol": "To confirm the results obtained for small cell lung cancer cell line xenograft, changes in PD markers Notch1, ASCL1 and GRP were evaluated in PDX model FHSC04 treated in vivo with LSD1i (trans)-N1-((1R,2S)-2-phenylcyclopropyl)cyclohexane-1,4-diamine (FIG. 13). Eight to twelve-week-old NOD scid gamma mice were implanted with 1.0×10^6 disaggregated cells from PDX model FHSC04 in 100 μl of 1:1 HITES media:Matrigel. […] Once tumor volume reached 150-200 mm^3, mice were randomly assigned to treatment groups for 21-35 days, depending on the kinetics of growth in the given model. Animals were treated with saline or with 400 μg/kg ((trans)-N1-((1R,2S)-2-phenylcyclopropyl)cyclohexane-1,4-diamine, delivered by oral gavage once every 7 days, dissolved to 10 ml/kg with 0.9% saline solution. For the 10-day treatment in FHSC04 used for molecular analyses, an additional dose of 400 μg/kg (trans)-N1-((1R,2S)-2-phenylcyclopropyl)cyclohexane-1,4-diamine was given 4 hours before tissue collection.\nFor RNA-seq analyses using PDX samples in vivo, the Ultra RNA Library Prep Kit for Illumina (New England BioLabs; catalog E753L) was used to generate libraries from total RNA. All library preparation was conducted according to the manufacturer's instructions. Single-end sequencing (50 bp) was performed using an Illumina HiSeq 2500, reads of low quality were filtered prior to alignment to the hg19 genome build using TopHat v2.0.12 (Trapnell et al. Bioinformatics 2009 May 1; 25(9): 1105-1111). In vivo PDX samples were also aligned to mm9, where the mouse and human alignments from a given sample were compared, discarding from downstream analysis those reads which had fewer mismatches to mouse, relative to human. Cuffdiff v2.1.1 (Trapnell et al. Nat Biotechnol. 2013 January; 31(1):46-53) was used to generate fragment per kilobase per million (FPKM) expression values. Counts (CPM) were generated from TopHat alignments using the Python package HTSeq v0.6.1 (Anders et al. Bioinformatics. 2015 Jan. 15; 31(2): 166-169) using the “intersection-strict” overlap mode. […]", "data": [{"molecule": "N[C@H]1CC[C@H](N[C@@H]2C[C@H]2c2ccccc2)CC1", "note": "[RG6016, (trans)-N1-((1R,2S)-2-phenylcyclopropyl)cyclohexane-1,4-diamine]", "values": [{"measurement": "ASCL1 transcript regulation (FIG. 13)", "value": "down regulation"}, {"measurement": "GRP transcript regulation (FIG. 13)", "value": "down regulation"}, {"measurement": "NOTCH1 transcript regulation (FIG. 13)", "value": "up regulation"}]}]}
